Values after ≈ are worked out from the molar mass of the structure shown.
Key:
[1] = molecular target: CSNK1A1 (Homo sapiens, UniProt P48729); experiment: KINOMEscan kinase binding; details: 10 μM; % of kinase remaining bound to bead-bound ligand
[2] = molecular target: CSNK1E [CK1ε] (Homo sapiens, UniProt P49674); experiment: KINOMEscan kinase binding; details: 10 μM; % of kinase remaining bound to bead-bound ligand
[3] = molecular target: PRKCQ (Homo sapiens, UniProt Q04759); experiment: KINOMEscan kinase binding; details: 10 μM; % of kinase remaining bound to bead-bound ligand
Sequence of PRKCQ (Q04759 whole entry): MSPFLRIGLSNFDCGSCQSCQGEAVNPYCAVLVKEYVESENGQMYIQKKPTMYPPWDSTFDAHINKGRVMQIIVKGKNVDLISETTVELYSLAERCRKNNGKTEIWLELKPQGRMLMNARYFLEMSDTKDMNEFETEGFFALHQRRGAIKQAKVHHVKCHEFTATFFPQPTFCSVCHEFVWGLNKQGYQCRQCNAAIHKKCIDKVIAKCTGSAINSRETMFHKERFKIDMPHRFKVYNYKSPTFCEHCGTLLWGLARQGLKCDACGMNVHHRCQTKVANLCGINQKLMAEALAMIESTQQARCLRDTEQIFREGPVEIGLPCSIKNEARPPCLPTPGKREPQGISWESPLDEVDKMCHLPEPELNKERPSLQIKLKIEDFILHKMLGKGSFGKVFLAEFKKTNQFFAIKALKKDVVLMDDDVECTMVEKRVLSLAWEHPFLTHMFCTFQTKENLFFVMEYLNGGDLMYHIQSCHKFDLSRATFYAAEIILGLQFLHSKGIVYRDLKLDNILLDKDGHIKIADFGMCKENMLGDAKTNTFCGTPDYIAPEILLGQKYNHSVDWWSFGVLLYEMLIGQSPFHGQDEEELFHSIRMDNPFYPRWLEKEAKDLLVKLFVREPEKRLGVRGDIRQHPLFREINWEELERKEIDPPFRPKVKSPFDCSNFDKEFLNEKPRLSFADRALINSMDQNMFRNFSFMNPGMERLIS

[4] = molecular target: FLT3 (D835H) (Homo sapiens, UniProt P36888, D835H); experiment: KINOMEscan kinase binding; details: 10 μM; % of kinase remaining bound to bead-bound ligand
[5] = molecular target: CDK13 (Homo sapiens, UniProt Q14004); experiment: KINOMEscan kinase binding; details: 10 μM; % of kinase remaining bound to bead-bound ligand
[6] = molecular target: NLK (Homo sapiens, UniProt Q9UBE8); experiment: KINOMEscan kinase binding; details: 10 μM; % of kinase remaining bound to bead-bound ligand
[7] = molecular target: CDK4/cyclin D1 (Homo sapiens, UniProt P11802); experiment: KINOMEscan kinase binding; details: 10 μM; % of kinase remaining bound to bead-bound ligand
[8] = Microsome stability, rat liver microsomes; details: rat liver microsomes; second value of h/r/m
[9] = molecular target: T1, CK1δ (Homo sapiens, UniProt P48730); experiment: CK1δ inhibition, Reaction Biology Corp.; type: biochemical; details: read-out: IC50 CK1δ; data obtained by Reaction Biology Corp.
T1 sequence (P48730 whole entry): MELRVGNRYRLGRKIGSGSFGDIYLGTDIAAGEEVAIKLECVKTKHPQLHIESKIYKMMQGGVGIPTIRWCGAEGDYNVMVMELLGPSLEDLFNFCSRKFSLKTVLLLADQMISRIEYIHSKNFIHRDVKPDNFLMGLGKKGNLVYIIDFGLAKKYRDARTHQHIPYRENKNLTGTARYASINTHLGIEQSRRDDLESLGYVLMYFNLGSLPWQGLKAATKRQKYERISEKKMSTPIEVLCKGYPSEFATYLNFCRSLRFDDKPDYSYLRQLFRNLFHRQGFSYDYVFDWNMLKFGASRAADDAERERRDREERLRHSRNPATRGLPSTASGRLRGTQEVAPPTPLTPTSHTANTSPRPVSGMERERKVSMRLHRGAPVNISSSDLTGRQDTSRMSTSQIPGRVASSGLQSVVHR

[10] = Solubility in PBS buffer; type: physicochemical
[11] = Solubility in DMEM/10% FBS; type: physicochemical
[12] = molecular target: LATS2 (Homo sapiens, UniProt Q9NRM7); experiment: KINOMEscan kinase binding; details: 10 μM; % of kinase remaining bound to bead-bound ligand
Sequence of LATS2 (Q9NRM7 whole entry): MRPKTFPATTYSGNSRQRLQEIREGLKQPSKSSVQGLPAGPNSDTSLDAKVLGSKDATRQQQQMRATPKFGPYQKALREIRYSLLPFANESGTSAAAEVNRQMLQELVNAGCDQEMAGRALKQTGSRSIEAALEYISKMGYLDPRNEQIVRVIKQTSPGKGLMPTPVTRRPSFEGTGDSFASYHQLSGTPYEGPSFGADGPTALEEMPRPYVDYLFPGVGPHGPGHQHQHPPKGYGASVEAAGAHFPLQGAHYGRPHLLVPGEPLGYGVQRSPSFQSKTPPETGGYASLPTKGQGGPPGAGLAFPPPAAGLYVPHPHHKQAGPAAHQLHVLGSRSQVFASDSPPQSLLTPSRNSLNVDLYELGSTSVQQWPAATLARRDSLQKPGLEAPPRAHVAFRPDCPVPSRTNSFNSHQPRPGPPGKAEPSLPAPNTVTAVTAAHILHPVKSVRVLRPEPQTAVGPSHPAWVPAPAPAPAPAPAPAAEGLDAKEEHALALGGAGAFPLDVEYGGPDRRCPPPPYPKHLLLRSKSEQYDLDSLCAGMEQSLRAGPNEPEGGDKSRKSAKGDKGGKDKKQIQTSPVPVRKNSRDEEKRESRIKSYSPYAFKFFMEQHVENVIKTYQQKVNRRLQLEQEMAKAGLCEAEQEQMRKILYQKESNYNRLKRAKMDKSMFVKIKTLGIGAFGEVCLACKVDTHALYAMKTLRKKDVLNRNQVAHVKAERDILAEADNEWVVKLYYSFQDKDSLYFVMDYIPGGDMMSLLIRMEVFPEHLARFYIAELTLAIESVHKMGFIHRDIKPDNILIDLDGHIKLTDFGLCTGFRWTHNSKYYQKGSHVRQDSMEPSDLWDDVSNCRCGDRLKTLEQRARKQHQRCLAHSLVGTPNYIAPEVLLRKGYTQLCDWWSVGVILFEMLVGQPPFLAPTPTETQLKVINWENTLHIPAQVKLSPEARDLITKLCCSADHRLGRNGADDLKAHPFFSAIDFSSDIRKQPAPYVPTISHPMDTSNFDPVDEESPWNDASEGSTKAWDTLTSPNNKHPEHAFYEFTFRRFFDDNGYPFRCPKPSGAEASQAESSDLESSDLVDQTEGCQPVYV

[13] = test system: FLT3 (N841L); experiment: KINOMEscan kinase binding; details: 10 μM; % of kinase remaining bound to bead-bound ligand
[14] = molecular target: RIOK3 (Homo sapiens, UniProt O14730); experiment: KINOMEscan kinase binding; details: 10 μM; % of kinase remaining bound to bead-bound ligand
Sequence of RIOK3 (O14730 whole entry): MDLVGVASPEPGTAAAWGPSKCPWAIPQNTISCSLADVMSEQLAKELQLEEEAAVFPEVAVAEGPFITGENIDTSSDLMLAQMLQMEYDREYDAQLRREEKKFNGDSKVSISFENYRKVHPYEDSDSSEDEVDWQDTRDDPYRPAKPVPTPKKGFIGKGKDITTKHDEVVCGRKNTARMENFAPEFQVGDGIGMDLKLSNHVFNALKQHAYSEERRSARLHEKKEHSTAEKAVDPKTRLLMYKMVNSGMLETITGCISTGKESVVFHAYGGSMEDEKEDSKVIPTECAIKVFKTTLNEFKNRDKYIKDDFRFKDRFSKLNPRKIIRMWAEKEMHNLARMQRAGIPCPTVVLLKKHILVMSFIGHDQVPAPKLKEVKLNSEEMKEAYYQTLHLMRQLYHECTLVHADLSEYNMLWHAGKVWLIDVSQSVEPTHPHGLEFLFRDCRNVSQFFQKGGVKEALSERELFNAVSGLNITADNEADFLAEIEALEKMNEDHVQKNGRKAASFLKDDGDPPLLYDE

[15] = molecular target: CSNK1A1L (Homo sapiens, UniProt Q8N752); experiment: KINOMEscan kinase binding; details: 10 μM; % of kinase remaining bound to bead-bound ligand
[16] = molecular target: CSNK1D [CK1δ] (Homo sapiens, UniProt P48730); experiment: KINOMEscan kinase binding; details: 10 μM; % of kinase remaining bound to bead-bound ligand
Sequence of CSNK1D [CK1δ] (P48730 whole entry): as the sequence (P48730 whole entry) above

[17] = test system: human melanoma A375 cell line; experiment: MTT assay against A375 melanoma cells; type: cell-based; details: read-out: MTT assay A375 EC50; human A375 melanoma cell line
[18] = molecular target: BMP2K (Homo sapiens, UniProt Q9NSY1); experiment: KINOMEscan kinase binding; details: 10 μM; % of kinase remaining bound to bead-bound ligand
Sequence of BMP2K (Q9NSY1 whole entry): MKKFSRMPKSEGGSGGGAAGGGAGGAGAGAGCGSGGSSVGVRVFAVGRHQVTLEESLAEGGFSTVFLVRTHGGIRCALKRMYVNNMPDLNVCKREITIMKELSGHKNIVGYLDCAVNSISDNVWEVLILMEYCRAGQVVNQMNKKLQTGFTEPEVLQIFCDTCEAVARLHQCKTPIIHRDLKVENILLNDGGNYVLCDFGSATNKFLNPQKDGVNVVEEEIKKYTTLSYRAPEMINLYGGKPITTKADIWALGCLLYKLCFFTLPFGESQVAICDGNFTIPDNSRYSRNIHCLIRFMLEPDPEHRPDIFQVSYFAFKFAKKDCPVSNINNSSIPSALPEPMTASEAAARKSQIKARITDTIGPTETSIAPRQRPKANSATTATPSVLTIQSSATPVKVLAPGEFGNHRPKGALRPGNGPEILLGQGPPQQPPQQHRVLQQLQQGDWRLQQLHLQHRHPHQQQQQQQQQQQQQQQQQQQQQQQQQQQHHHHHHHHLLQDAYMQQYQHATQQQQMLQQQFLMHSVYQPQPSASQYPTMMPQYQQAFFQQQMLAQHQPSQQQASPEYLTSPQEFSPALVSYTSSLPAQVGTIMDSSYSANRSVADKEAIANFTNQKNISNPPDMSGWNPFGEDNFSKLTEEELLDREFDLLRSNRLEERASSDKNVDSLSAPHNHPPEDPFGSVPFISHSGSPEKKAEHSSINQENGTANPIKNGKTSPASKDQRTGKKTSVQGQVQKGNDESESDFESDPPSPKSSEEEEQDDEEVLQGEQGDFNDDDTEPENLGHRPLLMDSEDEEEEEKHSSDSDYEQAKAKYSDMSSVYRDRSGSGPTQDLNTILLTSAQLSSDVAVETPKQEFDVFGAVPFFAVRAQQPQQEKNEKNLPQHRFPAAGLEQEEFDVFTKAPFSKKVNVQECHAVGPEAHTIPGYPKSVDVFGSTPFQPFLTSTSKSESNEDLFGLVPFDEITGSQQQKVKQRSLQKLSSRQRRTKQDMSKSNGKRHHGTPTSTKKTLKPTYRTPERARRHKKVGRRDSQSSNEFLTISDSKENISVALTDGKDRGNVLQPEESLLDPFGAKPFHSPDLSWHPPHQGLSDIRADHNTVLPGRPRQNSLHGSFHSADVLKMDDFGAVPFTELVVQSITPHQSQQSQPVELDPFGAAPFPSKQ

[19] = molecular target: FLT3 (D835Y) (Homo sapiens, UniProt P36888, D835Y); experiment: KINOMEscan kinase binding; details: 10 μM; % of kinase remaining bound to bead-bound ligand
[20] = molecular target: T1, CK1δ; experiment: Kinetic analysis; type: biochemical; details: ATP competitive
[21] = molecular target: ROCK2 (Homo sapiens, UniProt O75116); experiment: KINOMEscan kinase binding; details: 10 μM; % of kinase remaining bound to bead-bound ligand
[22] = Microsome stability, human liver microsomes; details: human liver microsomes; first value of h/r/m
[23] = molecular target: T2, FLT3 (Homo sapiens, UniProt P36888); experiment: Off-target kinase inhibition, Reaction Biology Corporation; type: biochemical; details: read-out: IC50 for inhibition of off-target kinase FLT3; data obtained by Reaction Biology Corporation
T2 sequence (P36888 27-993): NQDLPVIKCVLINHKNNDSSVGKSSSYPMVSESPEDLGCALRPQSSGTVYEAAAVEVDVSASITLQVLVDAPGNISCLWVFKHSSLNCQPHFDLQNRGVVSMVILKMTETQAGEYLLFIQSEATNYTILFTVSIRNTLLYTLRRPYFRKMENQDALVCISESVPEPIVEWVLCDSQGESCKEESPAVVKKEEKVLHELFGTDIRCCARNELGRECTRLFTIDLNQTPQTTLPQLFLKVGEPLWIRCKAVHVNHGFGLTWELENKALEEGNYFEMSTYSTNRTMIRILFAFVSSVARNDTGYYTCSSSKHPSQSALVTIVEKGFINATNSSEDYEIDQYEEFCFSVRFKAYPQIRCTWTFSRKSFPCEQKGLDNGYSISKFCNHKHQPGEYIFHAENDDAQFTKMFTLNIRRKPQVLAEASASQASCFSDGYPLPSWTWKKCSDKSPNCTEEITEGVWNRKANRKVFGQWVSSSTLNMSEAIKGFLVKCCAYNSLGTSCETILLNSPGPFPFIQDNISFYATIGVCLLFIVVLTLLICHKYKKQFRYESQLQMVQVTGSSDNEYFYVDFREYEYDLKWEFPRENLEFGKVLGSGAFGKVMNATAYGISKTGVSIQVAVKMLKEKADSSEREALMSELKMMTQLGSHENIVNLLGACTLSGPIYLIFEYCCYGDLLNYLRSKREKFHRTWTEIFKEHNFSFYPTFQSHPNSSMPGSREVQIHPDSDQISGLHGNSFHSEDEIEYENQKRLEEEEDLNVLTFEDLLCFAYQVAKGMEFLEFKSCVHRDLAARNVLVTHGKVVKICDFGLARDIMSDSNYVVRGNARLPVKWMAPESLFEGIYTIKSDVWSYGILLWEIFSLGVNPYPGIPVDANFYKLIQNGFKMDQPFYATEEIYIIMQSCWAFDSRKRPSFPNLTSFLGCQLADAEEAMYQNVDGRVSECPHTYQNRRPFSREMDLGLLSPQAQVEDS

[24] = molecular target: CDK4/cyclin D3 (Homo sapiens, UniProt P11802); experiment: KINOMEscan kinase binding; details: 10 μM; % of kinase remaining bound to bead-bound ligand
[25] = Mouse PK studies; type: in vivo; details: IV dosing, 1 mg/kg, 10/10/80 DMSO/Tween/water
[26] = molecular target: MARK2 (Homo sapiens, UniProt Q7KZI7); experiment: KINOMEscan kinase binding; details: 10 μM; % of kinase remaining bound to bead-bound ligand
Sequence of MARK2 (Q7KZI7 whole entry): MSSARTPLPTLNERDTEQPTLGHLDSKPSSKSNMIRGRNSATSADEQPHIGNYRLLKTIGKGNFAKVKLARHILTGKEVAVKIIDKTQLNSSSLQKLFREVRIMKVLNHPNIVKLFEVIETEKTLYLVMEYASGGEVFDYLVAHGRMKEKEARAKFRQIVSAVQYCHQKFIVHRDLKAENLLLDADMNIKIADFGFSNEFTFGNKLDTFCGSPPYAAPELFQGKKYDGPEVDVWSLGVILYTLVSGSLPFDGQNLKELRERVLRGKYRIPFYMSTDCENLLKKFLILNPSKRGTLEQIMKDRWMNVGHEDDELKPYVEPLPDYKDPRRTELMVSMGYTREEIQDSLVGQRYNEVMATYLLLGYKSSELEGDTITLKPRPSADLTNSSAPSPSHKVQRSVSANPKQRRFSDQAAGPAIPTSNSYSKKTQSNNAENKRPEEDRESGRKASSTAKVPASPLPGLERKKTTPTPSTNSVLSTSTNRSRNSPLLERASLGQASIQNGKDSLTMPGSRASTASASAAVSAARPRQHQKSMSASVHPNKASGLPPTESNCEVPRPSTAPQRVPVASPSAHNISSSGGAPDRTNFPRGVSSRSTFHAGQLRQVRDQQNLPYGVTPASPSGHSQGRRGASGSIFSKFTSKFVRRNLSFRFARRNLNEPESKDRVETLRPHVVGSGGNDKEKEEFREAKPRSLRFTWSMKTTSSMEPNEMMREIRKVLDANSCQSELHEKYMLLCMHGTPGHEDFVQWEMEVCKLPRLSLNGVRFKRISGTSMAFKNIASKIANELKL

[27] = Microsome stability, mouse liver microsomes; details: mouse liver microsomes; third value of h/r/m
[28] = molecular target: CDK7 (Homo sapiens, UniProt P50613); experiment: KINOMEscan kinase binding; details: 10 μM; % of kinase remaining bound to bead-bound ligand
Sequence of CDK7 (P50613 whole entry): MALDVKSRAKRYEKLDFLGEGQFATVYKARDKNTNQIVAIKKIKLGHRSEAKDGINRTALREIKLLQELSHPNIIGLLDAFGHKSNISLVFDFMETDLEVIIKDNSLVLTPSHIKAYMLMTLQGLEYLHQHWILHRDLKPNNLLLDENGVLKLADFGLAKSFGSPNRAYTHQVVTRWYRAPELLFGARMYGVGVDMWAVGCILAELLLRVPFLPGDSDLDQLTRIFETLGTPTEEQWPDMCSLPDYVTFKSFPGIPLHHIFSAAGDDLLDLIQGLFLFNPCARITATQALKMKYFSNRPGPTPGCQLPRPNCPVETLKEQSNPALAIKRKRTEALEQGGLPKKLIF

[29] = test system: FLT3 (ITD); experiment: KINOMEscan kinase binding; details: 10 μM; % of kinase remaining bound to bead-bound ligand
[30] = molecular target: T2, FLT3; experiment: KINOMEscan kinase binding; details: 10 μM; % of kinase remaining bound to bead-bound ligand
[31] = molecular target: MAST1 (Homo sapiens, UniProt Q9Y2H9); experiment: KINOMEscan kinase binding; details: 10 μM; % of kinase remaining bound to bead-bound ligand
[32] = molecular target: TAOK3 (Homo sapiens, UniProt Q9H2K8); experiment: KINOMEscan kinase binding; details: 10 μM; % of kinase remaining bound to bead-bound ligand
[33] = molecular target: MELK (Homo sapiens, UniProt Q14680); experiment: KINOMEscan kinase binding; details: 10 μM; % of kinase remaining bound to bead-bound ligand
[34] = molecular target: FLT3 (K663Q) (Homo sapiens, UniProt P36888, K663Q); experiment: KINOMEscan kinase binding; details: 10 μM; % of kinase remaining bound to bead-bound ligand
[35] = test system: 442 kinases; experiment: DiscoverRX KINOMEscan analysis of 442 kinases; type: binding; details: 10 μM, KINOMEscan of 442 kinases

Structure (SMILES) | % control activity, CSNK1A1 [1] | % control activity, PRKCQ [3] | % control activity, CDK13 [5] | % control activity, CDK4/cyclin D1 [7] | % control activity, LATS2 [12] | % control activity, RIOK3 [14] | % control activity, CSNK1A1L [15] | EC50 [17] | % control activity, BMP2K [18] | IC50 [23] | % control activity, CDK4/cyclin D3 [24] | AUC [25] | Cl [25] | Cmax [25] | T1/2 [25] | % control activity, MARK2 [26] | % control activity, CDK7 [28] | % control activity, FLT3 (ITD) [29] | % control activity, FLT3 [30] | other results
O=[N+]([O-])c1cccc2[nH]c(CNc3nc(N4CCOCC4)nc4c3ncn4-c3ccsc3)nc12 [SR-1277] | 63% | 100% | 1% | 56% | 100% | 9.6% | 9.6% | 0.022 µM | 6.2% | 0.305 µM | 56% | 1.26 µM·h | 2.8 mL/min/kg | 1.2 µM | 85.2 min | 100% | 72% | 3.7% | 3.4% | % control activity, CSNK1E [CK1ε] [2]: 0.5%; % control activity, FLT3 (D835H) [4]: 7.3%; % control activity, NLK [6]: 38%; Microsome stability T1/2 (rat) [8]: 5 min; IC50 [9]: 0.049 µM; Solubility [10]: 1 µM (≈ 0.478 µg/mL); Solubility [11]: 1 µM (≈ 0.478 µg/mL); % control activity, FLT3 (N841L) [13]: 11%; % control activity, CSNK1D [CK1δ] [16]: 4.2%; % control activity, FLT3 (D835Y) [19]: 11%; Ki [20]: 0.069 µM; % control activity, ROCK2 [21]: 100%; Microsome stability T1/2 (human) [22]: 7 min; Microsome stability T1/2 (mouse) [27]: 2 min; % control activity, MAST1 [31]: 100%
Fc1cccc(-n2cnc3c(NCc4nc5c(F)c(F)ccc5[nH]4)nc(N4CCOCC4)nc32)c1 [SR-3029] | 22% | 88% | 100% | 4.4% | 26% | 100% | 22% | 0.086 µM | 39% | 3 µM | 19% | 6.35 µM·h | 5.5 mL/min/kg | 7.3 µM | 54 min | 7.3% | 38% | 19% | 3.7% | % control activity, TAOK3 [32]: 34%; % control activity, MELK [33]: 22%; % control activity, FLT3 (K663Q) [34]: 12%; Number of off-target kinases inhibited ≥90% [35]: 6

— publication PMC3783656 (Bioorganic & medicinal chemistry letters, 2013)
